Source: patent publication US6773912B1, “Lantibiotic” (University of Otago, priority 1999, dated 2004)

What was measured:
Format in all cases: cell-based
[1] = tested on: Streptococcus pyogenes strain FF22; test: Decrease in colony-forming units after mixing cells with salivaricin preparation; conditions: partially purified preparation of titre 16; 4 h at 37° C.; exponential Todd Hewitt broth culture cells
Description: The inhibitory activity of the salivaricins was determined by measurement of the decrease with time in the number of colony-forming units (CFU) of a suspension of the sensitive indicator streptococcus (Streptococcus pyogenes strain FF22) after mixing the cells with a salivaricin preparation. Twice-washed cells from an exponential Todd Hewitt broth culture of the indicator streptococcus were resuspended in 0.067 M phosphate buffer (pH 6.5) to the original culture volume. Portions of partially purified salivaricin (titre 16 Au/ml) or of phosphate buffer (control) were then mixed with an equal volume of the washed cell suspension and incubation was continued at 37° C. Survivors were determined at intervals by plating suitable 10-fold dilutions (in cold Todd Hewitt broth) of the test and control mixtures on Columbia agar base and incubating at 37° C. for 24 h. Viable counts were expressed as the total number of CFU per ml.

Branhamella catarrhalis = test: Agar surface assay, inhibitory spectrum; conditions: 1 tested; 20 ul drops of preparation of titre 16 Ua/ml; 37° C. for 18 h
Description: (§1) Salivaricin activity is titrated using an agar surface assay. Drops (20 ul) of two-fold saline dilutions of the sample are assayed against Microoccus luteus T-18 on Columbia agar base. The reciprocal of the highest dilution to produce a definite zone of inhibition of the growth of the indicator lawn is the titre in arbitrary units per ml (Au/ml) of salivaricin activity.
(§2) By contrast the partially purified preparation of salivaricin A2 of titre 16 when tested using under the same conditions killed less than 10% of strain FF22 cells. Further tests of the inhibitory spectra of partially purified salivaricin A2 and salivaricin B preparations were done by using the agar surface assay described above. Drops (20 ul) of a preparation of titre 16 Ua/ml were spotted onto lawn cultures of the test strains that had been freshly inoculated by swabbing the surface of a Columbia agar base plate with a 1/100 dilution in saline of an 18 h Todd Hewitt broth culture of that strain. Production of a definite zone of inhibited test strain growth upon incubation of these plates at 37° C. for 18 h was taken to indicate sensitivity of that strain to the salivaricin.

[2] = tested on: Corynebacterium diphtheriae; test: Agar surface assay, inhibitory spectrum; conditions: 4 tested; 20 ul drops of preparation of titre 16 Ua/ml; 37° C. for 18 h
Description: as §1, §2

Escherichia coli = test: Agar surface assay, inhibitory spectrum; conditions: 2 tested; 20 ul drops of preparation of titre 16 Ua/ml; 37° C. for 18 h
Description: as §1, §2

Lactobactillus casei = test: Agar surface assay, inhibitory spectrum; conditions: 2 tested; 20 ul drops of preparation of titre 16 Ua/ml; 37° C. for 18 h
Description: as §1, §2

Staphylococcus aureus = test: Agar surface assay, inhibitory spectrum; conditions: 4 tested; 20 ul drops of preparation of titre 16 Ua/ml; 37° C. for 18 h
Description: as §1, §2

[3] = tested on: Stomatococcus mucilagenosus; test: Agar surface assay, inhibitory spectrum; conditions: 4 tested; 20 ul drops of preparation of titre 16 Ua/ml; 37° C. for 18 h
Description: as §1, §2

Streptococcus agalactiae = test: Agar surface assay, inhibitory spectrum; conditions: 5 tested; 20 ul drops of preparation of titre 16 Ua/ml; 37° C. for 18 h
Description: as §1, §2

[4] = tested on: Streptococcus equisimilis; test: Agar surface assay, inhibitory spectrum; conditions: 5 tested; 20 ul drops of preparation of titre 16 Ua/ml; 37° C. for 18 h
Description: as §1, §2

Streptococcus mutans = test: Agar surface assay, inhibitory spectrum; conditions: 6 tested; 20 ul drops of preparation of titre 16 Ua/ml; 37° C. for 18 h
Description: as §1, §2

Streptococcus pneumoniae = test: Agar surface assay, inhibitory spectrum; conditions: 4 tested; 20 ul drops of preparation of titre 16 Ua/ml; 37° C. for 18 h
Description: as §1, §2

Streptococcus pyogenes = test: Agar surface assay, inhibitory spectrum; conditions: 15 tested; 20 ul drops of preparation of titre 16 Ua/ml; 37° C. for 18 h
Description: as §1, §2

Streptococcus sanguis = test: Agar surface assay, inhibitory spectrum; conditions: 6 tested; 20 ul drops of preparation of titre 16 Ua/ml; 37° C. for 18 h
Description: as §1, §2

Streptococcus sobrinus = test: Agar surface assay, inhibitory spectrum; conditions: 4 tested; 20 ul drops of preparation of titre 16 Ua/ml; 37° C. for 18 h
Description: as §1, §2

salivaricin A2: BLIS co-expressed by S. salivarius K12 and K30, related but not identical to salivaricin A; sequence in FIG. 3 (KRGTGWFATITDDCPNSVFVCC; listed as Streptococcus salivarius)
CFU killed [1]: less than 10%
Number of strains sensitive (Branhamella catarrhalis): 0
Number of strains sensitive [2]: 0
Number of strains sensitive (Escherichia coli): 0
Number of strains sensitive (Lactobactillus casei): 1
Number of strains sensitive (Staphylococcus aureus): 0
Number of strains sensitive [3]: 0
Number of strains sensitive (Streptococcus agalactiae): 0
Number of strains sensitive [4]: 5
Number of strains sensitive (Streptococcus mutans): 0
Number of strains sensitive (Streptococcus pneumoniae): 1
Number of strains sensitive (Streptococcus pyogenes): 15
Number of strains sensitive (Streptococcus sanguis): 0
Number of strains sensitive (Streptococcus sobrinus): 0
